The text below walks through data of US20070265223A1, “COMPOSITIONS AND METHODS OF ENHANCING SURVIVABILITY AND REDUCING INJURY OF CELLS, TISSUES, ORGANS, AND ORGANISMS UNDER HYPOXIC OR ISCHEMIC CONDITIONS” (IKARIA, INC., priority 2006, published 2007).

Like-named read-outs stand apart in the source and are kept apart here.

The subject of series [1] is mice subjected to lethal hypoxia. Description: Protection of mice from lethal hypoxia using adenosine. Type of series: in vivo, mouse (C57BI/6). The settings on record: two mice. The protocol: The ability of adenosine to protect mice from lethal hypoxia was determined by comparing the effects of hypoxia on mice treated with adenosine to the effects of hypoxia on untreated mice. Male C57BI/6 mice, 5-8 weeks old, with implanted jugular vein catheter (Taconic) were implanted dorsally with a subcutaneous RFID temperature sensor (PTT-300, Bio Medic Data Systems, Inc.) and allowed to recover for at least 24 hours after implantation. Mice were injected with adenosine (19 mM, 3.2 μl/min total dose approximately 27 mg/kg) and temperature was monitored via the temperature sensor until subcutaneous body temperature had decreased to about 33° C. The infusion was stopped, and these mice, as well as control mice injected with sodium chloride) were exposed for 60 min to an atmosphere of 4% oxygen constructed by mixing air and nitrogen using mass flow controllers (Sierra Instruments). During the infusion and exposure to hypoxia, the animals' subcutaneous temperature was monitored every 3-5 min and their vital signs were monitored. In parallel, a control mouse was injected with vehicle (sodium chloride; NaCI; 137 mM, 3.2 μl/min, total dose of NaCl administered was approximately 41 mg/kg) and put into a hypoxic atmosphere (4% O2) at the same time as the mouse injected with adenosine, and its behavior and body temperature monitored. Following 60 min in hypoxic conditions, the mice (MJVC104 and MJVC 108) treated with adenosine were transferred into room air, and recovery of the mice was recorded by observing behavior and monitoring body temperature. […] The control mice (MJVC105 and MJVC107) died after approximately six minutes in the hypoxic atmosphere (4% O2; FIGS. 4B and 5B).

For series [2] the following is noted: cited from earlier work.
Series [3] concerns rats subjected to lethal hypoxia. Description: Protection of rats from lethal hypoxia using 5′-AMP. The conditions noted are these: rat RJVC35; 40 mM 5′AMP bolus 258 ul then 31.7 ul/min for 66.4 min, total 270 uM/kg; saline control 8.6 min. Type of series: in vivo, rat (Sprague Dawley).
For series [4] the following is noted: treatment of animals; Zhang et al., Nature 2006; cited from earlier work.
Series [5] deals with mice subjected to lethal hypoxia. Briefly: Protection of mice from lethal hypoxia using 5′-AMP. Type of series: in vivo, mouse (C57BI/6). The conditions noted are these: for survival of exposure to hypoxia: 4% oxygen for 60 min; for time to full recovery from lowest temperature: after return to ambient air. The protocol:
The ability of 5′-AMP to protect mice from lethal hypoxia was determined by comparing the effects of hypoxia on mice treated with 5′-AMP to the effects of hypoxia on untreated mice. Male C57BI/6 mice, 5-6 weeks old, with implanted jugular vein catheter (Taconic) were implanted dorsally with a subcutaneous RFID temperature sensor (IPTT-300, Bio Medic Data Systems, Inc.) and allowed to recover for at least 24 hours. Adenosine-5′-monophosphate (AMP sodium salt, Sigma) was dissolved in water, the osmolarity was adjusted with sodium chloride to 300 mOsm, the pH was adjusted with NaOH to 6.3, and the solution was filtered through a 0.2 um filter. The final AMP concentration was 40 mM. Mice were placed into a tall glass-bottom jar with opaque walls and infused via the jugular vein at a rate of 0.8 ul/min for 59.5 min followed by 1.6 ul/min for 12.8 min (total AMP dose=145 umol/kg) with a syringe pump (Harvard Apparatus), until their subcutaneous temperature had decreased to about 33° C. The infusion was stopped, and the mice were exposed for 60 min to an atmosphere of 4% oxygen constructed by mixing air and nitrogen using mass flow controllers (Sierra Instruments). During the infusion and exposure to hypoxia, the animals' subcutaneous temperature was read every 3-5 min and their vital signs were monitored. At the end if the hypoxic period, the animals were removed to ambient air. Temperature measurements were continued until the animals' temperature had returned to the normal range (FIGS. 1A and 1B). A control mouse was exposed to hypoxia, and its time of death was recorded.
The same procedure described above was repeated under conditions wherein the mouse treated with 5′AMP received a constant infusion of 40 mM AMP at 1.6 ul/min for 26.5 min (total AMP dose of 69 umol/kg) until its subcutaneous temperature had reached 33 C. In this case, the AMP-infused mouse (MJVC83) survived exposure to hypoxia for 60 min and recovered fully from the lowest temperature of 24° C. within 1 hour. The control mouse (MJVC84) died after 8.5 min of hypoxia with a final temperature of 32.7° C. (FIGS. 2A and 2B).

Where [6] appears, read: adenosine approximately 27 mg/kg, after 60 min 4% O2.

Take `Nc1ncnc2c1ncn2[C@@H]1O[C@H](CO)[C@@H](O)[C@H]1O` [adenosine]: in series [1] (adenosine 19 mM, 3.2 μl/min, total approximately 27 mg/kg, 4% O2 for 60 minutes), the “survival of hypoxic atmosphere” value is listed as “survived”. Also, in series [1] (setting [6]), the “behavioral abnormalities the following day” value is on record as “No behavioral abnormalities” and the “recovery after return to room air” value is given as “recovered completely”.
In the case of `[C-]#[O+]` [carbon monoxide], the symptoms on exposure result in series [2] (50 ppm) is “no symptoms”; in series [2] (200 ppm, within two-three hours), “slight headache”; in series [2] (400 ppm, within one to two hours), “frontal headache”; in series [2] (800 ppm, within 45 minutes) it was “dizziness, nausea, and/or convulsions”. For the same compound, the lethality on exposure result in series [2] (around 1000 ppm, exposure for more than around 1-2 minutes, an organism) is given as “expire”.
Take `Nc1ncnc2c1ncn2[C@@H]1O[C@H](COP(=O)(O)O)[C@@H](O)[C@H]1O` [5′-AMP, Adenosine-5′-monophosphate]: the “time of survival in 3.5% oxygen” value in series [3] was determined as 38.2 min. In addition, the “induction of torpor (depressed body temperature, mClps expression)” value in series [4] is listed as “induced torpor”. Besides, the “survival of exposure to hypoxia” value in series [5] (mouse MJVC80, 40 mM AMP jugular vein infusion 0.8 ul/min 59.5 min then 1.6 ul/min 12.8 min, total 145 umol/kg) is “survived”; in series [5] (mouse MJVC83, constant infusion 40 mM AMP 1.6 ul/min 26.5 min, total 69 umol/kg), “survived”. The “time to full recovery from lowest temperature” value in series [5] (mouse MJVC80, total AMP dose 145 umol/kg) was ≤ 1 h; in series [5] (mouse MJVC83, total AMP dose 69 umol/kg) it was ≤ 1 h.
